This note sets out measurements from article PMC10253536, “Bradykinin and Neurotensin Analogues as Potential Compounds in Colon Cancer Therapy” (International Journal of Molecular Sciences, 2023).

The nature of data set [1]: Stability test in human plasma. Particulars: for stability in human plasma (in words): 0.4 mg/mL, 37 °C, up to 24 h, TCA or formic acid/urea procedure depending on peptide, RP-HPLC 223 nm, at least triplicates. The protocol:
To check the stability of the studied peptides in human plasma, 24 h incubation of peptides in the appropriate medium was performed. For the studies, two methods were used. The first one involved the presence of trichloroacetic acid (TCA) as a protein precipitating reagent, while the second one involved a mixture of formic acid and urea. […] The procedure with the mixture of the formic acid and urea was used for BK-3, BK-4, BK-6, and BK-8.
• A. TCA procedure for peptides: BK, BK-1, BK-2, BK-5, BK-7, NT, and NT analogues.
Peptide stability tests were performed according to a TCA stability assay based on the method used by Nguyen et al.. Peptides were dissolved in water, mixed with 25% human plasma to a final concentration of 0.4 mg/mL, and incubated at 37 °C with agitation (300 rpm, Thermomixer, Eppendorf AG, Hamburg, Germany). After 0, 1, 2, 3, 4, and 24 h, […] of the solution was taken and mixed with 15% TCA to obtain a final concentration of 3% (v/v). The samples were incubated in ice for 10 min and centrifuged for 10 min (12,000 rpm, Microfuge 16, Beckman Coulter, Brea, CA, USA).
In the second method, peptides were dissolved in water, mixed with 25% human plasma to a final concentration 0.4 mg/mL, and incubated at 37 °C with agitation (300 rpm, Thermomixer, Eppendorf AG, Hamburg, Germany). After 0, 1, 2, 3, 4, and 24 h, […] of the solution was taken and mixed with 25 μL of a mixture of 1050 µL 6 M urea, 330 µL formic acid, and 120 µL water to a final peptide concentration of 0.4 mg/mL. The samples were incubated in ice for 10 min and centrifuged for 10 min (12,000 rpm, Microfuge 16, Beckman Coulter, Brea, CA, USA). Supernatants were analyzed by RP-HPLC on column Kinetex (2.6 µm, XB-C18 100 Å 150 × 2.1 mm) (Phenomenex, Torrance, CA, USA) using a linear gradient of acetonitrile (1–80% over 20 min) with detection at 223 nm. Peptides were quantified by their peak areas relative to the initial peak areas (0 min). All stability tests were performed at least in triplicates. As control samples, peptides dissolved only in water under the same conditions were used.

Data set [2] has as its system HCT116 cells. Kind of data set: Cell death assay (7-AAD, flow cytometry), spherical HCT116 cells. The class given is cell-based, human. Particulars: spherical HCT116, 500 µg/mL, 24 h, vs untreated control, n = 4. From the text: We evaluated the percentage of nonviable cells of HTC116 following analogue treatment via a flow cytometric assay using 7-Amino Actinomycin D (7-AAD) dye according to the procedure presented in the Materials and Methods Section 4.6. This dye is excluded by living cells but binds selectively to the DNA of damaged permeabilized cells. We learned that the number of 7AAD-positive cells changed according to different scenarios in CRC cells cultured in adherent and spherical forms following the incubation with BK and NT analogues (Figure 6).
Figure 6 Analysis of the viability of colorectal cancer HCT116 cells expanded in spherical (A,B) or adherent (C,D) form and treated with bradykinin (A,C) and neurotensin analogues (B,D) (500 µg/mL) for 24 h. Cells were incubated with 7-AAD and analyzed by flow cytometry. The y-axis presents the fold increase in the frequency of 7-AAD+ cells compared to untreated control cells. (* p < 0.05 vs. untreated control cells; • p < 0.05 vs. BK/NT-treated cells; ANOVA Kruskal–Wallis test, n = 4). Data presented as bars and whiskers representing the median with min–max values).
Following BK and NT analogue treatment of HCT116 cells, we evaluated the proportion of dead cells in our samples. For this purpose, we used a 7AAD Via Probe (BD Biosciences, San Jose, CA, USA). […]
Background: In flow cytometry, cells or beads pass a laser one at a time.

Data set [3] has as its system HCT116 cells. Kind of data set: Flow cytometry phenotype (CD133, CD44, CD29), HCT116 colonospheres. The class given is cell-based, human. The note with it: spherical HCT116, 500 µg/mL, 24 h, vs untreated control, n = 5. How it is done: Figure 4 The phenotype of the colorectal cancer HCT116 cell line expanded in the form of colonospheres and treated with (A,C,E) bradykinin and (B,D,F) neurotensin analogues (500 µg/mL) for 24 h. The data are presented as fold change of frequency of cells with given phenotype in relation to untreated control cells. The control value is set at a level of 1. Bars and whiskers represent the median with min–max values (* p < 0.05 vs. untreated control cells; • p < 0.05 vs. BK treated cells; ANOVA Kruskal–Wallis test, n = 5).
Similarly as for the adherent HTC116 cells, we also tested the spherical form with respect to the presence of CD29 and CD44 integrins on their surface but not only in CD133+ (Figure 4C,D) but also in CD133 (Figure 4E,F). In these studies, the count of CD133+, CD44+, and CD29+ cells was not affected in spherical culture, while at the same time, we observed that CSCs in colonospheres were more likely to change the level of these markers within the CD133-negative population. […] In contrast, the analogues BK-4, BK-6, and BK-8 decreased the number of these cells.
HCT116 in both adherent (5 × 10^4 cells/mL in 24-well plate) and spherical forms (8 × 10^5/mL cells in 24-well ultra-low attachment plates) were maintained in appropriate medium. […]

Non-standard residues stand in square brackets, D forms with d. Residues, ends and D or L forms follow the SMILES beside them. No end group written: not given here. *: point of attachment. Acetyl(1-adamantyl) = O=C(CC12CC3CC(CC(C3)C1)C2)*; Hyp = O=C(O)[C@@H]1C[C@@H](O)CN1; 2Thi = N[C@@H](Cc1cccs1)C(=O)O; Ac6c = NC1(C(=O)O)CCCCC1

Turning to `N=C(N)NCCC[C@@H](N)C(=O)N[C@@H](CCCNC(=N)N)C(=O)N1CCC[C@H]1C(=O)N1C[C@H](O)C[C@H]1C(=O)NCC(=O)N[C@@H](Cc1cccs1)C(=O)N[C@@H](CO)C(=O)N[C@H](Cc1ccccc1)C(=O)NC1(C(=O)N[C@@H](CCCNC(=N)N)C(=O)O)CCCC1` [BK-2] (HELM PEPTIDE1{[dR].R.P.[Hyp].G.[O=C([C@H](Cc1cccs1)N[*:1])[*:2]].S.[dF].[O=C(C1(N[*:1])CCCC1)[*:2]].R}$$$$V2.0), the “stability in human plasma (in words)” value in data set [1] (25% human plasma) is on record as “most stable”. The fraction remaining is what is left of the initial amount, in per cent. Low values mean a greater loss, high ones greater stability. For the molecule `N=C(N)NCCC[C@H](NC(=O)[C@H](Cc1cccs1)NC(=O)C1(NC(=O)[C@H](CO)NC(=O)[C@H](Cc2cccs2)NC(=O)CNC(=O)[C@@H]2C[C@@H](O)CN2C(=O)[C@@H]2CCCN2C(=O)[C@H](CCCNC(=N)N)NC(=O)[C@@H](CCCNC(=N)N)NC(=O)CC23CC4CC(CC(C4)C2)C3)CCCCC1)C(=O)O` [BK-3], the “stability in human plasma (in words)” value in data set [1] (25% human plasma) is listed as “least stable”. In data set [1] (human, 25% human plasma), this molecule gave a fraction remaining at 24 h, 0.4 mg/mL of about 40%. Take `N=C(N)NCCC[C@H](NC(=O)C1(NC(=O)[C@@H](Cc2ccccc2)NC(=O)[C@H](CO)NC(=O)[C@H](Cc2cccs2)NC(=O)CNC(=O)[C@@H]2C[C@@H](O)CN2C(=O)[C@@H]2CCCN2C(=O)[C@H](CCCNC(=N)N)NC(=O)[C@@H](CCCNC(=N)N)NC(=O)CC23CC4CC(CC(C4)C2)C3)CCCCC1)C(=O)O` [BK-4] ({Acetyl(1-adamantyl)}-[dR]RP[Hyp]G[2Thi]S[dF][Ac6c]R-OH): the “stability in human plasma (in words)” value in data set [1] (25% human plasma) is given as “most stable”. As to `N=C(N)NCCC[C@@H](N)C(=O)N[C@@H](CCCNC(=N)N)C(=O)N1CCC[C@H]1C(=O)N1C[C@H](O)C[C@H]1C(=O)NCC(=O)N[C@@H](Cc1cccs1)C(=O)N[C@@H](CO)C(=O)N[C@H](Cc1ccccc1)C(=O)N1CCCC[C@H]1C(=O)N[C@@H](CCCNC(=N)N)C(=O)O` [BK-5] (HELM PEPTIDE1{[dR].R.P.[Hyp].G.[O=C([C@H](Cc1cccs1)N[*:1])[*:2]].S.[dF].[O=C([C@@H]1CCCCN1[*:1])[*:2]].R}$$$$V2.0), the “stability in human plasma (in words)” value in data set [1] (25% human plasma) is on record as “most stable”. On to `N=C(N)NCCC[C@H](NC(=O)[C@H](Cc1cccs1)NC(=O)[C@H]1CCCCN1C(=O)[C@H](CO)NC(=O)[C@H](Cc1cccs1)NC(=O)CNC(=O)[C@@H]1C[C@@H](O)CN1C(=O)[C@@H]1CCCN1C(=O)[C@H](CCCNC(=N)N)NC(=O)[C@@H](CCCNC(=N)N)NC(=O)CC12CC3CC(CC(C3)C1)C2)C(=O)O` [BK-8], for which the fraction remaining at 24 h, 0.4 mg/mL in data set [1] (human, 25% human plasma) was 70%.

`CC(C)C[C@H](NC(=O)[C@@H](NC(=O)[C@H](Cc1ccc(O)cc1)NC(=O)[C@@H]1CCCN1C(=O)[C@H](CCCCN)NC(=O)[C@H](CCCCN)NC(=O)CNC(=O)[C@H](CCC(=O)O)NC(=O)[C@@H]1CCCN1)C(C)(C)C)C(=O)O` [NT-14] (HELM PEPTIDE1{P.E.G.K.K.P.Y.[CC(C)(C)[C@H](N[*:1])C(=O)[*:2]].L}$$$$V2.0): the “stability in human plasma (in words)” value in data set [1] (25% human plasma) is “better stability than the native peptide”. With Neurotensin [NT], the “number of nonviable 7AAD+ cells, spherical form” value with HCT116 cells [2] is listed as “prominently increased”. For the same molecule, the “CD133-CD44+CD29+ cell count in colonospheres” value with HCT116 cells [3] is reported as “significantly increasing”. In data set [1] (human, plasma), RPPGFSPFR [BK, Bradykinin] came in with a share remaining at 4 h, 0.4 mg/mL of 96% and a share remaining at 24 h, 0.4 mg/mL of about 50%.
